# Laboratory results: ChEMBL document CHEMBL2440076, “New triarylpyrazoles as broad-spectrum anticancer agents: design, synthesis, and biological evaluation” (Eur J Med Chem, 2013)
# Experiments:
# [1] = system: BT-549; experiment: Growth inhibition of human BT549 cells assessed as cell growth at 10 uM after 48 hrs by sulforhodamine B assay; type: functional; conditions: BT-549, 48 h, read-out: Activity
# [2] = Growth inhibition of human Hs 578T cells assessed as cell growth at 10 uM after 48 hrs by sulforhodamine B assay; type: functional; conditions: read-out: Activity
# [3] = system: UO-31; experiment: Growth inhibition of human UO31 cells assessed as cell growth at 10 uM after 48 hrs by sulforhodamine B assay; type: functional; conditions: UO-31, 48 h, read-out: Activity
# [4] = system: PC-3; experiment: Growth inhibition of human PC3 cells assessed as cell growth at 10 uM after 48 hrs by sulforhodamine B assay; type: functional; conditions: PC-3, 48 h, read-out: Activity
# [5] = system: SN12C; experiment: Growth inhibition of human SN12C cells assessed as cell growth at 10 uM after 48 hrs by sulforhodamine B assay; type: functional; conditions: read-out: Activity
# [6] = system: HT-29; experiment: Growth inhibition of human HT-29 cells after 48 hrs by sulforhodamine B assay; type: functional; conditions: HT-29, 48 h; for CC50: read-out: LC50 (the source's name)
# [7] = Growth inhibition of human HCC2998 cells after 48 hrs by sulforhodamine B assay; type: functional; conditions: HCC 2998, 48 h; for CC50: read-out: LC50 (the source's name)
# [8] = system: NCI-H23; experiment: Growth inhibition of human NCI-H23 cells after 48 hrs by sulforhodamine B assay; type: functional; conditions: NCI-H23, 48 h
# [9] = system: A549; experiment: Growth inhibition of human A549/ATCC cells after 48 hrs by sulforhodamine B assay; type: functional; conditions: A549, 48 h
# [10] = system: RPMI-8226; experiment: Growth inhibition of human RPMI8226 cells after 48 hrs by sulforhodamine B assay; type: functional, cell-based; conditions: RPMI-8226, 48 h; for CC50: read-out: LC50 (the source's name)
# [11] = system: K562; experiment: Growth inhibition of human K562 cells after 48 hrs by sulforhodamine B assay; type: functional; conditions: K562, 48 h; for CC50: read-out: LC50 (the source's name)
# [12] = system: RXF 393; experiment: Growth inhibition of human RXF393 cells assessed as cell growth at 10 uM after 48 hrs by sulforhodamine B assay; type: functional; conditions: RXF 393, 48 h, read-out: Activity
# [13] = system: ACHN; experiment: Growth inhibition of human ACHN cells assessed as cell growth at 10 uM after 48 hrs by sulforhodamine B assay; type: functional; conditions: read-out: Activity
# [14] = system: 786-0; experiment: Growth inhibition of human 786-0 cells assessed as cell growth at 10 uM after 48 hrs by sulforhodamine B assay; type: functional; conditions: 786-0, 48 h, read-out: Activity
# [15] = system: A498; experiment: Growth inhibition of human A498 cells assessed as cell growth at 10 uM after 48 hrs by sulforhodamine B assay; type: functional; conditions: A498, 48 h, read-out: Activity
# [16] = system: SK-OV-3; experiment: Growth inhibition of human SKOV3 cells assessed as cell growth at 10 uM after 48 hrs by sulforhodamine B assay; type: functional; conditions: SK-OV-3, 48 h, read-out: Activity
# [17] = system: OVCAR-3; experiment: Growth inhibition of human OVCAR3 cells assessed as cell growth at 10 uM after 48 hrs by sulforhodamine B assay; type: functional; conditions: OVCAR-3, 48 h, read-out: Activity
# [18] = system: UACC-62; experiment: Growth inhibition of human UACC62 cells assessed as cell growth at 10 uM after 48 hrs by sulforhodamine B assay; type: functional; conditions: UACC-62, 48 h, read-out: Activity
# [19] = system: UACC-257; experiment: Growth inhibition of human UACC257 cells assessed as cell growth at 10 uM after 48 hrs by sulforhodamine B assay; type: functional; conditions: UACC-257, 48 h, read-out: Activity
# [20] = system: SK-MEL-5; experiment: Growth inhibition of human SK-MEL-5 cells assessed as cell growth at 10 uM after 48 hrs by sulforhodamine B assay; type: functional; conditions: SK-MEL-5, 48 h, read-out: Activity
# [21] = system: SK-MEL-2; experiment: Growth inhibition of human SK-MEL-2 cells assessed as cell growth at 10 uM after 48 hrs by sulforhodamine B assay; type: functional; conditions: SK-MEL-2, 48 h, read-out: Activity
# [22] = system: SNB-19; experiment: Growth inhibition of human SNB19 cells assessed as cell growth at 10 uM after 48 hrs by sulforhodamine B assay; type: functional; conditions: SNB-19, 48 h, read-out: Activity
# [23] = system: HCT-116; experiment: Growth inhibition of human HCT116 cells assessed as cell growth at 10 uM after 48 hrs by sulforhodamine B assay; type: functional; conditions: HCT-116, 48 h, read-out: Activity
# [24] = system: MDA-MB-468; experiment: Growth inhibition of human MDA-MB-468 cells after 48 hrs by sulforhodamine B assay; type: functional, cell-based; conditions: MDA-MB-468, 48 h; for CC50: read-out: LC50 (the source's name)
# [25] = system: T47D; experiment: Growth inhibition of human T47D cells after 48 hrs by sulforhodamine B assay; type: functional; conditions: for CC50: read-out: LC50 (the source's name)
# [26] = system: DU-145; experiment: Growth inhibition of human DU145 cells after 48 hrs by sulforhodamine B assay; type: functional; conditions: DU-145, 48 h
# [27] = system: TK-10; experiment: Growth inhibition of human TK10 cells after 48 hrs by sulforhodamine B assay; type: functional; conditions: TK-10, 48 h; for CC50: read-out: LC50 (the source's name)
# [28] = system: SK-OV-3; experiment: Growth inhibition of human SKOV3 cells after 48 hrs by sulforhodamine B assay; type: functional; conditions: SK-OV-3, 48 h; for CC50: read-out: LC50 (the source's name)
# [29] = system: SK-MEL-5; experiment: Growth inhibition of human SK-MEL-5 cells after 48 hrs by sulforhodamine B assay; type: functional; conditions: SK-MEL-5, 48 h
# [30] = system: SK-MEL-28; experiment: Growth inhibition of human SK-MEL-28 cells after 48 hrs by sulforhodamine B assay; type: functional; conditions: SK-MEL-28, 48 h
# [31] = system: SNB-75; experiment: Growth inhibition of human SNB75 cells after 48 hrs by sulforhodamine B assay; type: functional; conditions: SNB-75, 48 h
# [32] = system: U-251; experiment: Growth inhibition of human U251 cells after 48 hrs by sulforhodamine B assay; type: functional; conditions: U-251, 48 h
# [33] = system: SF-539; experiment: Growth inhibition of human SF539 cells after 48 hrs by sulforhodamine B assay; type: functional; conditions: SF-539, 48 h
# [34] = system: HL-60(TB); experiment: Growth inhibition of human HL-60(TB) cells assessed as cell growth at 10 uM after 48 hrs by sulforhodamine B assay; type: functional; conditions: HL-60, 48 h, read-out: Activity
smiles,measurement,setting,value
COc1cc(-c2nn(-c3cccc(NC(=O)c4cccc(C(F)(F)F)c4)c3)cc2-c2ccncc2)ccc1Cl,growth at 10 µM,[1],26%
same,growth at 10 µM,[2],-5.69%
same,growth at 10 µM,[3],25.1%
same,growth at 10 µM,[4],4.39%
same,growth at 10 µM,[5],34.4%
same,GI50,[6],1390 nM
same,TGI,[6],20100 nM
same,CC50,[6],> 50000 nM
same,GI50,[7],2240 nM
same,TGI,[7],17600 nM
same,CC50,[7],> 50000 nM
same,GI50,[8],1560 nM
same,LC50,[8],> 50000 nM
same,TGI,[8],32500 nM
same,GI50,[9],1870 nM
same,LC50 (concentration killing 50% of starting cells),[9],> 50000 nM
same,TGI,[9],> 50000 nM
same,GI50,[10],1570 nM
same,IC50,[10],1570 nM
same,TGI,[10],26600 nM
same,CC50,[10],> 50000 nM
same,GI50,[11],1400 nM
same,TGI,[11],> 50000 nM
same,CC50,[11],> 50000 nM
same,growth at 10 µM,[12],-42.8%
same,growth at 10 µM,[13],31.6%
same,growth at 10 µM,[14],29.8%
same,growth at 10 µM,[15],-19%
same,growth at 10 µM,[16],7.18%
same,growth at 10 µM,[17],-25.6%
same,growth at 10 µM,[18],27.2%
same,growth at 10 µM,[19],34.5%
same,growth at 10 µM,[20],-33%
same,growth at 10 µM,[21],-38.6%
same,growth at 10 µM,[22],47.3%
same,growth at 10 µM,[23],8.15%
same,GI50,[24],1320 nM
same,IC50,[24],1320 nM
same,TGI,[24],4560 nM
same,CC50,[24],> 50000 nM
same,GI50,[25],2550 nM
same,TGI,[25],> 50000 nM
same,CC50,[25],> 50000 nM
same,GI50,[26],1760 nM
same,LC50,[26],> 50000 nM
same,TGI,[26],32100 nM
same,GI50,[27],3240 nM
same,TGI,[27],> 50000 nM
same,CC50,[27],> 50000 nM
same,GI50,[28],2290 nM
same,TGI,[28],> 50000 nM
same,CC50,[28],> 50000 nM
same,GI50,[29],978 nM
same,LC50 (concentration killing 50% of cells),[29],40600 nM
same,TGI,[29],2470 nM
same,GI50,[30],2490 nM
same,LC50,[30],> 50000 nM
same,TGI,[30],> 50000 nM
same,GI50,[31],1130 nM
same,"LC50 (lethal concentration, 50% net cell kill)",[31],> 50000 nM
same,GI50,[32],1620 nM
same,LC50 (concentration killing 50% of cells),[32],> 50000 nM
same,TGI,[32],> 50000 nM
same,GI50,[33],895 nM
same,LC50 (concentration killing 50% of cells),[33],> 50000 nM
same,TGI,[33],2300 nM
same,growth at 10 µM,[34],1.93%
COc1cc(-c2nn(-c3cccc(NC(=O)Nc4ccc(Cl)c(Cl)c4)c3)cc2-c2ccncc2)ccc1Cl,growth at 10 µM,[1],6.23%
same,growth at 10 µM,[2],-6.95%
same,growth at 10 µM,[3],15.9%
same,growth at 10 µM,[4],-17.6%
same,growth at 10 µM,[5],10.7%
same,GI50,[6],1240 nM
same,TGI,[6],6460 nM
same,CC50,[6],> 50000 nM
same,GI50,[7],1560 nM
same,TGI,[7],6200 nM
same,CC50,[7],> 50000 nM
same,GI50,[8],1410 nM
same,LC50,[8],> 50000 nM
same,TGI,[8],5190 nM
same,GI50,[9],745 nM
same,LC50 (concentration killing 50% of starting cells),[9],> 50000 nM
same,TGI,[9],> 50000 nM
same,GI50,[10],388 nM
same,IC50,[10],390 nM
same,TGI,[10],3260 nM
same,CC50,[10],> 50000 nM
same,GI50,[11],890 nM
same,TGI,[11],> 50000 nM
same,CC50,[11],> 50000 nM
same,growth at 10 µM,[12],-22.8%
same,growth at 10 µM,[13],11.5%
same,growth at 10 µM,[14],15.3%
same,growth at 10 µM,[15],-6.82%
same,growth at 10 µM,[16],11.8%
same,growth at 10 µM,[17],-10%
same,growth at 10 µM,[18],-65.1%
same,growth at 10 µM,[19],-36.6%
same,growth at 10 µM,[20],-80%
same,growth at 10 µM,[21],-44.2%
same,growth at 10 µM,[22],27.2%
same,growth at 10 µM,[23],8.67%
same,GI50,[24],567 nM
same,IC50,[24],570 nM
same,TGI,[24],2270 nM
same,CC50,[24],> 50000 nM
same,GI50,[25],1420 nM
same,TGI,[25],> 50000 nM
same,CC50,[25],> 50000 nM
same,GI50,[26],1520 nM
same,LC50,[26],> 50000 nM
same,TGI,[26],34200 nM
same,GI50,[27],1430 nM
same,TGI,[27],40900 nM
same,CC50,[27],> 50000 nM
same,GI50,[28],1930 nM
same,TGI,[28],> 50000 nM
same,CC50,[28],> 50000 nM
same,GI50,[29],741 nM
same,LC50 (concentration killing 50% of cells),[29],3020 nM
same,TGI,[29],1490 nM
same,GI50,[30],1430 nM
same,LC50,[30],> 50000 nM
same,TGI,[30],7320 nM
same,GI50,[31],1050 nM
same,"LC50 (lethal concentration, 50% net cell kill)",[31],> 50000 nM
same,TGI,[31],5170 nM
same,GI50,[32],820 nM
same,LC50 (concentration killing 50% of cells),[32],> 50000 nM
same,TGI,[32],2470 nM
same,GI50,[33],965 nM
same,LC50 (concentration killing 50% of cells),[33],> 50000 nM
same,TGI,[33],3080 nM
same,growth at 10 µM,[34],-18.1%
